In ChEMBL document CHEMBL3124761, “Synthesis and biological evaluation of N,N'-squaramides with high in vivo efficacy and low toxicity: toward a low-cost drug against Chagas disease” (J Med Chem, 2014):
Active and inactive are the calls of the source. The rule behind the calls is not given here.

Legend:
Mus musculus [1] = experiment: Toxicity in BALB/c albino mouse infected with blood trypomastigote stage of Trypanosoma cruzi assessed as change in alkaline phosphatase level in serum at 25 mg/kg, ip administered on day 7 to 12 post-infection measured after day 120 relative to control; format: organism-based; parameters: dose 25 mg/kg, route intraperitoneal; conditions: in vivo
Mus musculus [2] = experiment: Toxicity in BALB/c albino mouse infected with blood trypomastigote stage of Trypanosoma cruzi assessed as decrease in ALT/GPT level in serum at 25 mg/kg, ip administered on day 7 to 12 post-infection measured after day 120 relative to control; format: organism-based; parameters: dose 25 mg/kg, route intraperitoneal; scale not given: the % may be the effect or the level left; conditions: in vivo
Mus musculus [3] = experiment: Toxicity in BALB/c albino mouse infected with blood trypomastigote stage of Trypanosoma cruzi assessed as increase in AST/GOT level in serum at 25 mg/kg, ip administered on day 7 to 12 post-infection measured after day 120 relative to control; format: organism-based; parameters: dose 25 mg/kg, route intraperitoneal; conditions: in vivo
Mus musculus [4] = experiment: Toxicity in BALB/c albino mouse infected with blood trypomastigote stage of Trypanosoma cruzi assessed as increase in total bilirubin level in serum at 25 mg/kg, ip administered on day 7 to 12 post-infection measured after day 120 relative to control; format: organism-based; parameters: dose 25 mg/kg, route intraperitoneal; conditions: in vivo
Mus musculus [5] = experiment: Toxicity in BALB/c albino mouse infected with blood trypomastigote stage of Trypanosoma cruzi assessed as change in LDH level in serum at 25 mg/kg, ip administered on day 7 to 12 post-infection measured after day 120 relative to control; format: organism-based; parameters: dose 25 mg/kg, route intraperitoneal; conditions: in vivo
Mus musculus [6] = experiment: Toxicity in BALB/c albino mouse infected with blood trypomastigote stage of Trypanosoma cruzi assessed as decrease in creatinephophokinase-MB level in serum at 25 mg/kg, ip administered on day 7 to 12 post-infection measured after day 120 relative to control; format: organism-based; parameters: dose 25 mg/kg, route intraperitoneal; scale not given: the % may be the effect or the level left; conditions: in vivo
Mus musculus [7] = experiment: Toxicity in BALB/c albino mouse infected with blood trypomastigote stage of Trypanosoma cruzi assessed as change in urea level in serum at 25 mg/kg, ip administered on day 7 to 12 post-infection measured after day 120 relative to control; format: organism-based; parameters: dose 25 mg/kg, route intraperitoneal; conditions: in vivo
Trypanosoma cruzi [8] = experiment: Trypanocidal activity against metacyclic trypomastigote stage of Trypanosoma cruzi infected in BALB/c albino mouse acute chagas disease model assessed as inhibition of parasitemia at 25 mg/kg, ip administered on day 7 to 12 post-infection measured every 2 days until day 40 […] relative to control; format: functional; conditions: route intraperitoneal
Trypanosoma cruzi [9] = experiment: Trypanocidal activity against metacyclic trypomastigote stage of Trypanosoma cruzi infected in BALB/c albino mouse acute chagas disease model assessed as reduction of parasite burden at 25 mg/kg, ip administered on day 7 to 12 post-infection measured on day 14 by ELISA; format: functional, organism-based; parameters: dose 25 mg/kg
Mus musculus [10] = experiment: Toxicity in BALB/c albino mouse assessed as mortality at 25 mg/kg, ip administered for 5 days; format: organism-based; parameters: dose 25 mg/kg, route intraperitoneal; conditions: in vivo, 120 h
Trypanosoma cruzi [11] = experiment: (§1) Antitrypanosomal activity against trypomastigote stage of Trypanosoma cruzi IRHOD/CO/2008/SN3 assessed as reduction of trypomastigote number per mililiter of culture medium at IC25 preincubated for 12 hrs followed by compound washout measured every 48 hrs for 10 days by Neubauer hemocytometric chamber analysis relative to control; format: functional
Trypanosoma cruzi [12] = experiment: as §1, with “amastigote” for “trypomastigote”, “IRHOD/CO/2008/SN3 infected in African green monkey Vero cells” for “IRHOD/CO/2008/SN3”, “cell” for “mililiter of culture medium”; format: functional
Trypanosoma cruzi [13] = experiment: Antitrypanosomal activity against amastigote stage of Trypanosoma cruzi IRHOD/CO/2008/SN3 infected in African green monkey Vero cells assessed as decrease in infection rate at IC25 preincubated for 12 hrs followed by compound washout measured every 48 hrs for 10 days by Neubauer hemocytometric chamber analysis relative to control; format: functional
[14] = Selectivity index, ratio of IC50 for African green monkey Vero cells to IC50 for amastigote stage of Trypanosoma cruzi IRHOD/CO/2008/SN3 infected in African green monkey Vero cells; format: toxicity, cell-based; conditions: read-out: Ratio IC50
[15] = Selectivity index, ratio of IC50 for African green monkey Vero cells to IC50 for epimastigote stage of Trypanosoma cruzi IRHOD/CO/2008/SN3; format: toxicity, cell-based; conditions: read-out: Ratio IC50
Vero = experiment: Cytotoxicity against African green monkey Vero cells assessed as cell viability after 72 hrs by propidium iodide/fluorescein diacetate staining-based flow cytometric analysis; conditions: Chlorocebus sabaeus
Trypanosoma cruzi [16] = experiment: Antitrypanosomal activity against amastigote stage of Trypanosoma cruzi IRHOD/CO/2008/SN3 infected in African green monkey Vero cells assessed as parasite growth inhibition after 72 hrs by Giemsa staining-based microscopic analysis; format: functional, organism-based; conditions: IRHOD/CO/2008/SN3, Vero
Trypanosoma cruzi [17] = experiment: Antitrypanosomal activity against epimastigote stage of Trypanosoma cruzi IRHOD/CO/2008/SN3 assessed as parasite growth inhibition after 72 hrs by Neubauer hemocytometric chamber analysis; format: functional, organism-based; conditions: IRHOD/CO/2008/SN3, 72 h
Trypanosoma cruzi [18] = experiment: Antitrypanosomal activity against epimastigote stage of Trypanosoma cruzi IRHOD/CO/2008/SN3 assessed as change in excreted succinate level at IC25 after 96 hrs by 1H NMR analysis relative to control; format: functional
Trypanosoma cruzi [19] = experiment: Antitrypanosomal activity against epimastigote stage of Trypanosoma cruzi IRHOD/CO/2008/SN3 assessed as change in excreted pyruvate level at IC25 after 96 hrs by 1H NMR analysis relative to control; format: functional
Trypanosoma cruzi [20] = experiment: Antitrypanosomal activity against epimastigote stage of Trypanosoma cruzi IRHOD/CO/2008/SN3 assessed as change in excreted acetate level at IC25 after 96 hrs by 1H NMR analysis relative to control; format: functional
Trypanosoma cruzi [21] = experiment: Antitrypanosomal activity against epimastigote stage of Trypanosoma cruzi IRHOD/CO/2008/SN3 assessed as change in excreted alanine level at IC25 after 96 hrs by 1H NMR analysis relative to control; format: functional
Trypanosoma cruzi [22] = experiment: Antitrypanosomal activity against epimastigote stage of Trypanosoma cruzi IRHOD/CO/2008/SN3 assessed as change in excreted lactate level at IC25 after 96 hrs by 1H NMR analysis relative to control; format: functional
Mus musculus [23] = experiment: Toxicity in BALB/c albino mouse infected with blood trypomastigote stage of Trypanosoma cruzi assessed as change in uric acid level in serum at 25 mg/kg, ip administered on day 7 to 12 post-infection measured after day 120 relative to control; format: organism-based; parameters: dose 25 mg/kg, route intraperitoneal; conditions: in vivo

Structure (SMILES): CCCCNc1c(NCCCN(CCCC)CCCC)c(=O)c1=O
- Activity (Mus musculus [1]): < 10%
- Activity (Mus musculus [2]): 10%
- Activity (Mus musculus [3]): 40%
- Activity (Mus musculus [4]): 30%
- Activity (Mus musculus [5]): < 10%
- Activity (Mus musculus [6]): 30%
- Activity (Mus musculus [7]): < 10%
- inhibition in vivo at 25 mg/kg (Trypanosoma cruzi [8]): 21%
- Activity (Trypanosoma cruzi [9]): Active
- Activity (Mus musculus [10]): Non-toxic
- inhibition (INH) (Trypanosoma cruzi [11]): 38%
- inhibition (INH) (Trypanosoma cruzi [12]): 45%
- inhibition (INH) (Trypanosoma cruzi [13]): 61%
- selectivity ratio [14]: 24.6
- selectivity ratio [15]: 13.3
- IC50 (Vero): 148 µM
- IC50 (Trypanosoma cruzi [16]): 6 µM
- IC50 (Trypanosoma cruzi [17]): 21.1 µM
- Activity (Trypanosoma cruzi [18]): -21.6%
- Activity (Trypanosoma cruzi [19]): -12%
- Activity (Trypanosoma cruzi [20]): 8.5%
- Activity (Trypanosoma cruzi [21]): -7.9%
- Activity (Trypanosoma cruzi [22]): -22.3%
- Activity (Mus musculus [23]): < 10%
